Experimental data: ChEMBL document CHEMBL1201862, “PubChem BioAssay data set” (2004)
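Five compound concentrations were applied to cells in 96-well plates for 48 hours; endpoints were derived by simple linear interpolation of the resulting dose-response curve. GI50: concentration for 50% inhibition of growth.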 Active and inactive are the calls of the source. No stated cut-off is given here; in the data, active = GI50 up to about 1.1 µM and inactive = higher.

What was measured:
Assay in all cases: NCI tumour cell line growth inhibition, 48 h
[1] = system: OVCAR-3
[2] = system: NCI-H23
[3] = system: LOX IMVI
[4] = system: RXF 393
[5] = system: UACC-62
[6] = system: EKVX
[7] = system: TK-10
[8] = system: HCC 2998
[9] = system: NCI-H226
[10] = system: SK-MEL-5
[11] = system: A549
[12] = system: SF-295
[13] = system: UO-31
[14] = system: HCT-116
[15] = system: A498
[16] = system: KM-20L2
[17] = system: HOP-62
[18] = system: MDA-N
[19] = system: T47D
[20] = system: BT-549

## COC(=O)C(Cc1c[nH]c2ccccc12)NC(=O)C(Cc1c[nH]c2ccccc12)NC(=O)OCc1ccccc1 (stereo unspecified)
[1]
  GI50: 15.5 µM (inactive)
[2]
  GI50: 17.3 µM (inactive)
[3]
  GI50: 18.3 µM (inactive)
[4]
  GI50: 19.5 µM (inactive)
[5]
  GI50: 19.3 µM (inactive)
[6]
  GI50: 18.6 µM (inactive)
[7]
  GI50: 22.8 µM (inactive)
[8]
  GI50: 17.8 µM (inactive)
[9]
  GI50: 22.1 µM (inactive)
[10]
  GI50: 29.5 µM (inactive)
[11]
  GI50: 17.8 µM (inactive)
[12]
  GI50: 17.9 µM (inactive)
[13]
  GI50: 19.3 µM (inactive)
[14]
  GI50: 17.9 µM (inactive)
[15]
  GI50: 72.8 µM (inactive)
[16]
  GI50: 18.2 µM (inactive)
[17]
  GI50: 19.7 µM (inactive)

## CCCCCCCCCCCCCCCCCCNC(=O)OCC(CNS(=O)(=O)CCC[n+]1cccc2ccccc21)COC (stereo unspecified)
[1]
  GI50: 3.99 µM (inactive)
[2]
  GI50: 1.16 µM (inactive)
[3]
  GI50: 2.01 µM (inactive)
[4]
  GI50: 4.99 µM (inactive)
[5]
  GI50: 1.96 µM (inactive)
[6]
  GI50: 17.7 µM (inactive)
[7]
  GI50: 3.4 µM (inactive)
[18]
  GI50: 1.81 µM (inactive)
[19]
  GI50: 3.88 µM (inactive)
[8]
  GI50: 1.34 µM (inactive)
[9]
  GI50: 1.05 µM (active)
[20]
  GI50: 2.18 µM (inactive)
[10]
  GI50: 2.06 µM (inactive)
[11]
  GI50: 1.47 µM (inactive)
[12]
  GI50: 2.6 µM (inactive)
[13]
  GI50: 27.9 µM (inactive)
[14]
  GI50: 1.35 µM (inactive)
[15]
  GI50: 10.9 µM (inactive)
[16]
  GI50: 0.776 µM (active)
[17]
  GI50: 3.76 µM (inactive)

## Cc1nc2c(N)ncnc2o1
[1]
  GI50: > 100 µM (inactive)
[2]
  GI50: > 100 µM (inactive)
[3]
  GI50: > 100 µM (inactive)
[4]
  GI50: > 100 µM (inactive)
[5]
  GI50: > 100 µM (inactive)
[6]
  GI50: > 100 µM (inactive)
[7]
  GI50: > 100 µM (inactive)
[8]
  GI50: > 100 µM (inactive)
[9]
  GI50: > 100 µM (inactive)
[10]
  GI50: > 100 µM (inactive)
[11]
  GI50: > 100 µM (inactive)
[12]
  GI50: > 100 µM (inactive)
[13]
  GI50: > 100 µM (inactive)
[14]
  GI50: > 100 µM (inactive)
[15]
  GI50: > 100 µM (inactive)
[16]
  GI50: > 100 µM (inactive)
[17]
  GI50: > 100 µM (inactive)

## CN/N=C(\C)CC(=O)Nc1cccc(Cl)c1C
[1]
  GI50: > 100 µM (inactive)
[2]
  GI50: > 100 µM (inactive)
[3]
  GI50: > 100 µM (inactive)
[4]
  GI50: > 100 µM (inactive)
[5]
  GI50: > 100 µM (inactive)
[6]
  GI50: > 100 µM (inactive)
[7]
  GI50: > 100 µM (inactive)
[8]
  GI50: > 100 µM (inactive)
[9]
  GI50: > 100 µM (inactive)
[10]
  GI50: > 100 µM (inactive)
[11]
  GI50: > 100 µM (inactive)
[12]
  GI50: > 100 µM (inactive)
[13]
  GI50: > 100 µM (inactive)
[14]
  GI50: > 100 µM (inactive)
[15]
  GI50: > 100 µM (inactive)
[16]
  GI50: > 100 µM (inactive)
[17]
  GI50: > 100 µM (inactive)

## CC[C@](C)(O)C(=O)O[C@H]1C(=O)O[C@@H]2C[C@H]3C(C)=C[C@H](O)[C@@H](O)[C@]3(C)[C@H]3[C@@]4(O)OC[C@]32[C@@H]1[C@@H](C)[C@H]4O
[1]
  GI50: 13.5 µM (inactive)
[2]
  GI50: 5.78 µM (inactive)
[3]
  GI50: 14.5 µM (inactive)
[4]
  GI50: 0.631 µM (active)
[5]
  GI50: 19.3 µM (inactive)
[6]
  GI50: 9.33 µM (inactive)
[8]
  GI50: 14.1 µM (inactive)
[9]
  GI50: 17.7 µM (inactive)
[10]
  GI50: 9.48 µM (inactive)
[11]
  GI50: 61.8 µM (inactive)
[12]
  GI50: 46.5 µM (inactive)
[13]
  GI50: 96.2 µM (inactive)
[14]
  GI50: 14.7 µM (inactive)
[15]
  GI50: 30.2 µM (inactive)
[16]
  GI50: 47.1 µM (inactive)
[17]
  GI50: 35.1 µM (inactive)

## CC(=O)Nc1ccc(OCC(O)CO)cc1 (stereo unspecified)
[1]
  GI50: > 100 µM (inactive)
[2]
  GI50: > 100 µM (inactive)
[3]
  GI50: 25.5 µM (inactive)
[4]
  GI50: > 100 µM (inactive)
[5]
  GI50: > 100 µM (inactive)
[6]
  GI50: > 100 µM (inactive)
[7]
  GI50: > 100 µM (inactive)
[8]
  GI50: > 100 µM (inactive)
[9]
  GI50: > 100 µM (inactive)
[10]
  GI50: > 100 µM (inactive)
[11]
  GI50: > 100 µM (inactive)
[12]
  GI50: > 100 µM (inactive)
[13]
  GI50: > 100 µM (inactive)
[14]
  GI50: > 100 µM (inactive)
[15]
  GI50: > 100 µM (inactive)
[16]
  GI50: > 100 µM (inactive)
[17]
  GI50: > 100 µM (inactive)

## Cc1cc(N)c2cc(NC(=O)CCCCCCCCC(=O)Nc3ccc4nc(C)cc(N)c4c3)ccc2n1
[1]
  GI50: 98.6 µM (inactive)
[2]
  GI50: 15.2 µM (inactive)
[3]
  GI50: 22.2 µM (inactive)
[4]
  GI50: > 65.3 µM (inactive)
[5]
  GI50: > 77.3 µM (inactive)
[6]
  GI50: 36.3 µM (inactive)
[7]
  GI50: 45.8 µM (inactive)
[8]
  GI50: 10.3 µM (inactive)
[9]
  GI50: 2.43 µM (inactive)
[10]
  GI50: 5.58 µM (inactive)
[11]
  GI50: 6.35 µM (inactive)
[12]
  GI50: 43.2 µM (inactive)
[13]
  GI50: > 100 µM (inactive)
[14]
  GI50: 5.07 µM (inactive)
[15]
  GI50: 29.5 µM (inactive)
[16]
  GI50: 29.1 µM (inactive)
[17]
  GI50: > 61.9 µM (inactive)

## CC(C)C1COC(c2ccc3ccccc3c2-c2c(O[Si](C)(C)C(C)(C)C)ccc3ccccc23)=N1 (stereo unspecified)
[1]
  GI50: 17.3 µM (inactive)
[2]
  GI50: 16.3 µM (inactive)
[3]
  GI50: 19.7 µM (inactive)
[4]
  GI50: 18.8 µM (inactive)
[5]
  GI50: 15.8 µM (inactive)
[6]
  GI50: 19.1 µM (inactive)
[7]
  GI50: 17.9 µM (inactive)
[8]
  GI50: 15.1 µM (inactive)
[9]
  GI50: 11.8 µM (inactive)
[10]
  GI50: 16.7 µM (inactive)
[11]
  GI50: 17.4 µM (inactive)
[12]
  GI50: 17.2 µM (inactive)
[13]
  GI50: 14.8 µM (inactive)
[15]
  GI50: 19.2 µM (inactive)
[16]
  GI50: 19.5 µM (inactive)
[17]
  GI50: 18.8 µM (inactive)

## C=CC1=CC(C)C[C@]1(O)C(=O)OC (stereo partly specified)
[1]
  GI50: < 0.01 µM (active)
[2]
  GI50: < 0.01 µM (active)
[3]
  GI50: < 0.01 µM (active)
[4]
  GI50: < 0.01 µM (active)
[5]
  GI50: < 0.01 µM (active)
[6]
  GI50: < 0.01 µM (active)
[7]
  GI50: < 0.01 µM (active)
[8]
  GI50: < 0.01 µM (active)
[9]
  GI50: < 0.01 µM (active)
[10]
  GI50: > 100 µM (inactive)
[11]
  GI50: < 0.01 µM (active)
[12]
  GI50: < 0.01 µM (active)
[13]
  GI50: < 0.01 µM (active)
[14]
  GI50: < 0.01 µM (active)
[15]
  GI50: < 0.01 µM (active)
[16]
  GI50: > 100 µM (inactive)
[17]
  GI50: < 0.01 µM (active)

## O=C(CCN(CCO)CCO)Nc1ccc2c(c1)C(=O)c1ccc(NC(=O)CCN(CCO)CCO)cc1C2=O
[1]
  GI50: 16.1 µM (inactive)
[2]
  GI50: 38.7 µM (inactive)
[3]
  GI50: 14.2 µM (inactive)
[4]
  GI50: 4 µM (inactive)
[5]
  GI50: 3.44 µM (inactive)
[6]
  GI50: 5.69 µM (inactive)
[7]
  GI50: 13.4 µM (inactive)
[8]
  GI50: 1.51 µM (inactive)
[9]
  GI50: 6.95 µM (inactive)
[10]
  GI50: 17.2 µM (inactive)
[11]
  GI50: 44.4 µM (inactive)
[12]
  GI50: > 100 µM (inactive)
[13]
  GI50: 10.4 µM (inactive)
[14]
  GI50: 7.36 µM (inactive)
[15]
  GI50: 9.86 µM (inactive)
[16]
  GI50: 48.4 µM (inactive)
[17]
  GI50: 29.4 µM (inactive)
